# Measurements as given in patent publication US20110178064A1, “SPIRO CONDENSED […] DERIVATIVES FOR USE AS ANTIBACTERIAL” (A[…]&D, priority 2007, published 2011).
# Target: Escherichia coli DNA gyrase A/B tetramer (Escherichia coli, UniProt P0AES4+P0AES6)
# Assay: DNA gyrase supercoiling activity fluorescence polarisation assay
# Assay type: biochemical
# Procedure, shortened: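 Gyrase supercoiling reactions quenched with 40 nM 5′-BODIPY-FL oligodeoxynucleotide triplex probe in pH 3.5 NaCl/sodium acetate buffer; fluorescence anisotropy read after 60 min (485/535 nm).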
# Chain of Escherichia coli DNA gyrase A/B tetramer (P0AES4 whole entry, one chain of several): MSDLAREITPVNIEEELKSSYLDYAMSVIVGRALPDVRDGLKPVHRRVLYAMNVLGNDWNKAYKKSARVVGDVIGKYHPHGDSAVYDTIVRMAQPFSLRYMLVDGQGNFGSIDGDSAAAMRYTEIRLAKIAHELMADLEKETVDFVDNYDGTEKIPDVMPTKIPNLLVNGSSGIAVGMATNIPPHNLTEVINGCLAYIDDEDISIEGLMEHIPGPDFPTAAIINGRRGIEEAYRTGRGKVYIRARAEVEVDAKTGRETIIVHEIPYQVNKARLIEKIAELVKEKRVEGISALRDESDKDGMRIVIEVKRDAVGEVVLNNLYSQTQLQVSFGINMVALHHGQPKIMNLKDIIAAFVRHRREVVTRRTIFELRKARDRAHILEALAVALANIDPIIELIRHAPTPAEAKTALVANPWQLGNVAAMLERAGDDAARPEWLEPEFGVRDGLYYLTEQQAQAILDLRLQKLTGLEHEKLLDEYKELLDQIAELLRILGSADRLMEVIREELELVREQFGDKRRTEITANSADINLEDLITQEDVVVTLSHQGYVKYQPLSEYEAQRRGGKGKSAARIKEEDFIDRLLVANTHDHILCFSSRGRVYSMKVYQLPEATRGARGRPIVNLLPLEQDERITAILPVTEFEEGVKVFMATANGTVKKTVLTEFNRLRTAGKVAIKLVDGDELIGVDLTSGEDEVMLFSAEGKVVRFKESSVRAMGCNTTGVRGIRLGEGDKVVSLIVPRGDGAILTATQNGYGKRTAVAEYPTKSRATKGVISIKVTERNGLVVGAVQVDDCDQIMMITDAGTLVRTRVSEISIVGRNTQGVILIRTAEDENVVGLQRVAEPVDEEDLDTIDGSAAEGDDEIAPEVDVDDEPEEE
row,Structure (SMILES),IC50
1,"C[C@@H]1CN2c3ccc(-c4cscn4)nc3CC3(C(=O)NC(=O)NC3=O)[C@H]2[C@H](C)O1 (relative stereo) [Example 101, (2R,4S,4aS)-rel-2,4-Dimethyl-8-(1,3-thiazol-4-yl)-1,2,4,4a-tetrahydro-2′H,6H-spiro[1,4-oxazino[4,3-a][1,5]naphthyridine-5,5′-pyrimidine]-2′,4′,6′(1′H,3′H)-trione]",2 µM
2,"C[C@@H]1CN2c3cnc(-c4cscn4)cc3CC3(C(=O)NC(=O)NC3=O)[C@H]2[C@H](C)O1 (relative stereo) [Example 102, (6aS,7S,9R)-rel-7,9-Dimethyl-3-(1,3-thiazol-4-yl)-6a,7,9,10-tetrahydro-2′H,5H-spiro[1,4-oxazino[4,3-a][1,7]naphthyridine-6,5′-pyrimidine]-2′,4′,6′(1′H,3′H)-trione]",16 µM
3,"COc1cncc(-c2cnc3c(c2)CC2(C(=O)NC(=O)NC2=O)[C@H]2[C@H](C)O[C@H](C)CN32)n1 (relative stereo) [Example 103, (6aS,7S,9R)-rel-3-(6-Methoxypyrazin-2-yl)-7,9-dimethyl-6a,7,9,10-tetrahydro-2′H,5H-spiro[1,4-oxazino[4,3-a][1,8]naphthyridine-6,5′-pyrimidine]-2′,4′,6′(1′H,3′H)-trione]",4 µM
4,"COc1cncc(-c2ccc3c(n2)CC2(C(=O)NC(=O)NC2=O)[C@H]2[C@H](C)O[C@H](C)CN32)n1 (relative stereo) [Example 104, (2R,4S,4aS)-rel-8-(6-Methoxypyrazin-2-yl)-2,4-dimethyl-1,2,4,4a-tetrahydro-2′H,6H-spiro[1,4-oxazino[4,3-a][1,5]naphthyridine-5,5′-pyrimidine]-2′,4′,6′(1′H,3′H)-trione]",22 µM
5,"COc1nc(-c2cnc3c(c2)CC2(C(=O)NC(=O)NC2=O)[C@H]2[C@H](C)O[C@H](C)CN32)cs1 (relative stereo) [Example 107, (6aS,7S,9R)-rel-3-(2-Methoxy-1,3-thiazol-4-yl)-7,9-dimethyl-6a,7,9,10-tetrahydro-2′H,5H-spiro[1,4-oxazino[4,3-a][1,8]naphthyridine-6,5′-pyrimidine]-2′,4′,6′(1′H,3′H)-trione]",6 µM
6,"Cc1nc(C)c(-c2ccc3c(n2)CC2(C(=O)NC(=O)NC2=O)[C@H]2[C@H](C)O[C@H](C)CN32)s1 (relative stereo) [Example 109, (2R,4S,4aS)-rel-8-(2,4-Dimethyl-1,3-thiazol-5-yl)-2,4-dimethyl-1,2,4,4a-tetrahydro-2′H,6H-spiro[1,4-oxazino[4,3-a][1,5]naphthyridine-5,5′-pyrimidine]-2′,4′,6′(1′H,3′H)-trione]",14 µM
7,"C[C@@H]1CN2c3ncc(-c4ccc(N5CCOCC5)nc4)cc3CC3(C(=O)NC(=O)NC3=O)[C@H]2[C@H](C)O1 (relative stereo) [Example 111, (6aS,7S,9R)-rel-7,9-Dimethyl-3-[6-(morpholin-4-yl)pyridin-3-yl]-6a,7,9,10-tetrahydro-2′H,5H-spiro[1,4-oxazino[4,3-a][1,8]naphthyridine-6,5′-pyrimidine]-2′,4′,6′(1′H,3′H)-trione]",23 µM
8,"C[C@@H]1CN2c3cnc(-c4ccc(N5CCOCC5)nc4)cc3CC3(C(=O)NC(=O)NC3=O)[C@H]2[C@H](C)O1 (relative stereo) [Example 112, (6aS,7S,9R)-rel-7,9-Dimethyl-3-[6-(morpholin-4-yl)pyridin-3-yl]-6a,7,9,10-tetrahydro-2′H,5H-spiro[1,4-oxazino[4,3-a][1,7]naphthyridine-6,5′-pyrimidine]-2′,4′,6′(1′H,3′H)-trione]",> 83 µM
9,"C[C@@H]1CN2c3ncc(C#N)cc3CC3(C(=O)NC(=O)NC3=O)[C@H]2[C@H](C)O1 (relative stereo) [Example 113, (6aS,7S,9R)-rel-7,9-Dimethyl-2′,4′,6′-trioxo-1′,3′,4′,6′,6a,7,9,10-octahydro-2′H,5H-spiro[1,4-oxazino[4,3-a][1,8]naphthyridine-6,5′-pyrimidine]-3-carbonitrile]",22 µM
10,"C[C@@H]1CN2c3c(nc(Br)c(F)c3Cl)CC3(C(=O)NC(=O)NC3=O)[C@H]2[C@H](C)O1 (relative stereo) [Example 114, (2R,4S,4aS)-rel-8-Bromo-10-chloro-9-fluoro-2,4-dimethyl-2,4,4a,6-tetrahydro-1H,1′H-spiro[[1,4]oxazino[4,3-a][1,5]naphthyridine-5,5′-pyrimidine]-2′,4′,6′(3′H)-trione]",2 µM
11,"C[C@@H]1CN2c3cc(Cl)ncc3CC3(C(=O)NC(=O)NC3=O)[C@H]2[C@H](C)O1 (relative stereo) [Example 115, (2R,4S,4aS)-rel-9-chloro-2,4-dimethyl-1,2,4,4a-tetrahydro-2′H,6H-spiro[1,4-oxazino[4,3-a][1,6]naphthyridine-5,5′-pyrimidine]-2′,4′,6′(1′H,3′H)-trione]",> 20 µM
12,"C[C@@H]1CN2c3cnc(-c4cccs4)cc3CC3(C(=O)NC(=O)NC3=O)[C@H]2[C@H](C)O1 (relative stereo) [Example 116, (6aS,7S,9R)-rel-7,9-dimethyl-3-(thiophen-2-yl)-6a,7,9,10-tetrahydro-1′H,5H-spiro[[1,4]oxazino[4,3-a][1,7]naphthyridine-6,5′-pyrimidine]-2′,4′,6′(3′H)-trione]",33 µM
13,"C[C@@H]1CN2c3cnc(-c4ccn[nH]4)cc3CC3(C(=O)NC(=O)NC3=O)[C@H]2[C@H](C)O1 (relative stereo) [Example 118, (6aS,7S,9R)-rel-7,9-Dimethyl-3-(1H-pyrazol-5-yl)-6a,7,9,10-tetrahydro-2′H,5H-spiro[1,4-oxazino[4,3-a][1,7]naphthyridine-6,5′-pyrimidine]-2′,4′,6′(1′H,3′H)-trione]",19 µM
14,"C[C@H]1CN2c3ncc(-c4nnn(C)n4)cc3CC3(C(=O)NC(=O)NC3=O)[C@@H]2[C@@H](C)O1 (relative stereo) [Example 120(a), (6aR,7R,9S)-rel-7,9-Dimethyl-3-(2-methyl-2H-tetrazol-5-yl)-6a,7,9,10-tetrahydro-2′H,5H-spiro[1,4-oxazino[4,3-a][1,8]naphthyridine-6,5′-pyrimidine]-2′,4′,6′(1′H,3′H)-trione]",12 µM
15,"C[C@H]1CN2c3ncc(-c4nnnn4C)cc3CC3(C(=O)NC(=O)NC3=O)[C@@H]2[C@@H](C)O1 (relative stereo) [Example 120(b), (6aR,7R,9S)-rel-7,9-Dimethyl-3-(1-methyl-1H-tetrazol-5-yl)-6a,7,9,10-tetrahydro-2′H,5H-spiro[1,4-oxazino[4,3-a][1,8]naphthyridine-6,5′-pyrimidine]-2′,4′,6′(1′H,3′H)-trione]",14 µM
16,"C[C@@H]1CN2c3ncc(C(=N)NO)cc3CC3(C(=O)NC(=O)NC3=O)[C@H]2[C@H](C)O1 (relative stereo) [Example 121, (6aS,7S,9R)-rel-N-Hydroxy-7,9-dimethyl-2′,4′,6′-trioxo-1′,3′,4′,6′,6a,7,9,10-octahydro-2′H,5H-spiro[1,4-oxazino[4,3-a][1,8]naphthyridine-6,5′-pyrimidine]-3-carboximidamide]",9 µM
17,"Cc1nc(-c2cnc3c(c2)CC2(C(=O)NC(=O)NC2=O)[C@H]2[C@H](C)O[C@H](C)CN32)no1 (relative stereo) [Example 122, (6aS,7S,9R)-rel-7,9-dimethyl-3-(5-methyl-1,2,4-oxadiazol-3-yl)-6a,7,9,10-tetrahydro-2′H,5H-spiro[1,4-oxazino[4,3-a][1,8]naphthyridine-6,5′-pyrimidine]-2′,4′,6′(1′H,3′H)-trione]",10 µM
18,"C[C@@H]1CN2c3ncc(-c4noc(-c5ccccc5)n4)cc3CC3(C(=O)NC(=O)NC3=O)[C@H]2[C@H](C)O1 (relative stereo) [Example 123, (6aS,7S,9R)-rel-7,9-Dimethyl-3-(5-phenyl-1,2,4-oxadiazol-3-yl)-6a,7,9,10-tetrahydro-2′H,5H-spiro[1,4-oxazino[4,3-a][1,8]naphthyridine-6,5′-pyrimidine]-2′,4′,6′(1′H,3′H)-trione]",9 µM
19,"CC1CC(C)C2N(C1)c1cnc(Br)cc1CC21C(=O)NC(=O)NC1=O (stereo not shown) [Example 2, 3-Bromo-7,9-Dimethyl-5,6a,7,8,9,10-hexahydro-1′H-spiro[pyrido[1,2-a][1,7]naphthyridine-6,5′-pyrimidine]-2′,4′,6′(3′H)-trione]",9 µM
20,"O=C1NC(=O)C2(Cc3ccnc(Cl)c3N3CCCCC32)C(=O)N1 (stereo not shown) [Example 4, 1-chloro-5,6a,7,8,9,10-Hexahydro-1′H-spiro[pyrido[1,2-a][1,7]naphthyridine-6,5′-pyrimidine]-2′,4′,6′(3′H)-trione]",> 100 µM
21,"O=C1NC(=O)C2(Cc3c(F)cncc3N3CCCCC32)C(=O)N1 (stereo not shown) [Example 5, 4-Fluoro-5,6a,7,8,9,10-Hexahydro-1′H-spiro[pyrido[1,2-a][1,7]naphthyridine-6,5′-pyrimidine]-2′,4′,6′(3′H)-trione]",> 100 µM
22,"CC1C[C@@H](C)[C@H]2N(C1)c1ncccc1CC21C(=O)NC(=O)NC1=O (stereo partly drawn) [Example 7, (6aR,7R)-7,9-Dimethyl-5,6a,7,8,9,10-hexahydro-1′H-spiro[pyrido[1,2-a][1,8]naphthyridine-6,5′-pyrimidine]-2′,4′,6′(3′H)-trione]",3 µM
23,"CC1C[C@@H](C)[C@H]2N(C1)c1ccc(Br)nc1CC21C(=O)NC(=O)NC1=O (stereo partly drawn) [Example 8, (6aR,7R)-3-Bromo-7,9-dimethyl-5,6a,7,8,9,10-hexahydro-1′H-spiro[pyrido[1,2-a][1,5]naphthyridine-6,5′-pyrimidine]-2′,4′,6′(3′H)-trione]",> 83 µM
24,"O=C1NC(=O)C2(Cc3cc(Br)cnc3N3CCCCC32)C(=O)N1 (stereo not shown) [Example 10, 3-Bromo-5,6a,7,8,9,10-hexahydro-1′H-spiro[pyrido[1,2-a][1,8]naphthyridine-6,5′-pyrimidine]-2′,4′,6′(3′H)-trione]",> 83 µM
25,"CC1C[C@@H](C)[C@H]2N(C1)c1ncc(Br)cc1CC21C(=O)NC(=O)NC1=O (stereo partly drawn) [Example 11, (6aR,7R)-3-Bromo-7,9-dimethyl-5,6a,7,8,9,10-hexahydro-1′H-spiro[pyrido[1,2-a][1,8]naphthyridine-6,5′-pyrimidine]-2′,4′,6′(3′H)-trione]",30 µM
